The values below come from US20250304537A1 (Repare Therapeutics Inc., priority 2022, published 2025).

The IC50 is the midpoint of a concentration-inhibition curve.

Structures are written as SMILES. A value given as a limit tells only on which side of the number the result lay.

One assay has as its system PKMYT1 (CDK1 pThr14) in FUOV1 cells. As to the kind of experiment: PKMYT1 cell-based activity assay, CDK1 pThr14 AlphaLISA in FUOV1 cells. The following applies: 2 h, 2 hours with compound, read-out: FUOV-1 CDK1 pThr14 IC50. In a few lines:
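FUOV1 cells were treated with PKMYT1 inhibitor for 2 h at 37 °C, then lysed. CDK1 pThr14 was measured by AlphaLISA, pairing an anti-pThr14 antibody with an anti-total CDK1 antibody (5 nM each). Signal read at 680/615 nm and used to derive IC50.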
On the technique in general: Alpha assays give light when donor and acceptor beads are brought close together.
Take `Cc1ccc2[nH]ncc2c1-c1nc(-c2cc(F)cnc2N[C@@H]2CCOC[C@H]2O)nc(C(N)=O)c1N` [Compound 799, 5-amino-2-(5-fluoro-2-(((3S,4R)-3-hydroxytetrahydro-2H-pyran-4-yl)amino)pyridin-3-yl)-6-(5-methyl-1H-indazol-4-yl)pyrimidine-4-carboxamide]: the IC50 was over 10 µM.

Consider `Cc1ccc2[nH]ncc2c1-c1nc(-c2cc(F)cnc2N[C@H]2CCOC[C@@H]2O)nc(C(N)=O)c1N` [Compound 801], for which the IC50 was over 10 µM.

`Cc1ccc2[nH]ncc2c1-c1nc(-c2ccc(Cl)nc2NC2CC(F)(F)C2)nc(C(N)=O)c1N` [Compound 802]: the IC50 was found to be 0.743 µM.

On to `Cc1ccc2[nH]ncc2c1-c1nc(-c2ccc(Cl)nc2NC2CCOCC2)nc(C(N)=O)c1N` [Compound 803], for which the IC50 worked out at 0.074 µM.

Consider `Cc1ccc2[nH]ncc2c1-c1nc(-c2cccnc2Nc2nc(F)ccc2F)nc(C(N)=O)c1O` [Compound 806, 2-(2-((3,6-difluoropyridin-2-yl)amino)pyridin-3-yl)-5-hydroxy-6-(5-methyl-1H-indazol-4-yl)pyrimidine-4-carboxamide], for which the half-maximal inhibitory concentration (IC50) was over 10 µM.

With `Cc1ccc2[nH]ncc2c1-c1nc(-c2ccc(C#N)nc2NC2CC(F)(F)C2)nc(C(N)=O)c1N` [Compound 809], the IC50 was 0.272 µM.

Take `Cc1ccc2[nH]ncc2c1-c1nc(-c2ccc(C#N)nc2NC2CCOCC2)nc(C(N)=O)c1N` [Compound 810]: the IC50 turned out to be 0.096 µM.

As for `Cc1ccc2[nH]ncc2c1-c1nc(-c2ccc(F)cc2NC2CS(=O)(=O)C2)nc(C(N)=O)c1N` [Compound 811, 5-amino-2-(2-((1,1-dioxidothietan-3-yl)amino)-4-fluorophenyl)-6-(5-methyl-1H-indazol-4-yl)pyrimidine-4-carboxamide], the IC50 is 0.03 µM.

`Cc1ccc2[nH]ncc2c1-c1nc(-c2cc(F)cnc2N[C@H]2CC[C@H](O)C2)nc(C(N)=O)c1N` [Compound 812]: the IC50 was determined as 0.026 µM.

Consider `Cc1ccc2[nH]ncc2c1-c1nc(-c2cc(F)cnc2N[C@H]2COC[C@@H]2O)nc(C(N)=O)c1N` [Compound 813], for which the IC50 came out at 0.123 µM.

For `Cc1ccc2[nH]ncc2c1-c1nc(-c2cc(F)cnc2N[C@@H]2COC[C@@H]2O)nc(C(N)=O)c1N` [Compound 814], the IC50 came to 0.071 µM.

For the compound `Cc1ccc2[nH]ncc2c1-c1nc(-c2cc(F)cnc2N[C@H]2COC[C@H]2O)nc(C(N)=O)c1N` [Compound 815], the concentration for half-maximal inhibition (IC50) came to 0.511 µM.

On to `Cc1ccc2[nH]ncc2c1-c1nc(-c2ccccc2-c2ccn[nH]2)nc(C(N)=O)c1N` [Compound 816], for which the IC50 was over 10 µM.

`Cc1ccc2[nH]ncc2c1-c1nc(-c2ccc(F)nc2NC2CS(=O)(=O)C2)nc(C(N)=O)c1N` [Compound 819]: the IC50 was determined as 0.023 µM.

With `Cc1ccc2[nH]ncc2c1-c1nc(-c2ccccc2[S+](C)[O-])nc(C(N)=O)c1N` (stereo not shown) [Compound 820], the IC50 turned out to be 0.229 µM.

`Cc1ccc2[nH]ncc2c1-c1nc(-c2ccc(C#N)cc2N[C@H]2C[C@](C)(O)C2)nc(C(N)=O)c1N` [Compound 821]: the 50% inhibitory concentration (IC50) turned out to be 0.071 µM.

For the compound `Cc1ccc2[nH]ncc2c1-c1nc(-c2ccc(C#N)cc2N[C@H]2C[C@@](C)(O)C2)nc(C(N)=O)c1N` [Compound 822], the IC50 was 0.172 µM.

Take `Cc1ccc2[nH]ncc2c1-c1nc(-c2cc(F)cnc2NC2CC(O)C2(C)C)nc(C(N)=O)c1N` (stereo not shown) [Compound 823]: the 50% inhibitory concentration (IC50) was 0.036 µM.

Take `[2H]C([2H])([2H])c1ccc2[nH]ncc2c1-c1nc(-c2cccnc2Nc2nc(C)ccc2F)nc(C(N)=O)c1N` [Compound 824]: the IC50 was determined as 0.002 µM.

Consider `Cc1ccc2[nH]ncc2c1-c1nc(-c2ccc(Cl)nc2Nc2nccnc2F)nc(C(N)=O)c1N` [Compound 825], for which the IC50 was determined as 0.009 µM.

As for `COc1nccnc1Nc1nc(Cl)ccc1-c1nc(C(N)=O)c(N)c(-c2c(C)ccc3[nH]ncc23)n1` [Compound 826], the IC50 is 0.012 µM.

In the case of `Cc1ccc(F)c(Nc2ncccc2-c2cc(C(N)=O)c(N)c(-c3c(C)ccc4[nH]ncc34)n2)n1` [Compound 827, 5-amino-2′-((3-fluoro-6-methylpyridin-2-yl)amino)-6-(5-methyl-1H-indazol-4-yl)-[2,3′-bipyridine]-4-carboxamide], the IC50 amounted to 0.012 µM.

Take `Cc1ccc2[nH]ncc2c1-c1nc(-c2cc(F)cnc2N[C@H]2CC[C@@H](O)CC2)nc(C(N)=O)c1N` [Compound 828]: the IC50 stood at 0.03 µM.

Take `Cc1ccc2[nH]ncc2c1-c1nc(-c2ccc(Cl)nc2Nc2cccnn2)nc(C(N)=O)c1N` [Compound 832]: the IC50 was 0.217 µM.

`Cc1ccc2[nH]ncc2c1-c1nc(-c2cc(F)cnc2N[C@@H]2CC[C@H](O)C2)nc(C(N)=O)c1N` [Compound 833]: the IC50 stood at 0.047 µM.

Regarding `Cc1ccc2[nH]ncc2c1-c1nc(-c2cc(F)cnc2NC2CCN(C)CC2)nc(C(N)=O)c1N` [Compound 838], the IC50 is 0.055 µM.

Turning to `Cc1ccc2[nH]ncc2c1-c1nc(-c2cc(Cl)ncc2NC2CC(F)(F)C2)nc(C(N)=O)c1N` [Compound 840], the IC50 turned out to be 0.054 µM.

For `Cc1ccc2[nH]ncc2c1-c1nc(-c2cc(F)cnc2OC2CC(C)(O)C2)nc(C(N)=O)c1N` (stereo not shown) [Compound 841], the half-maximal inhibitory concentration (IC50) was determined as 1.12 µM.

`Cc1ccc2[nH]ncc2c1-c1nc(-c2cccnc2Nc2nc(C(F)F)ccc2F)nc(C(N)=O)c1N` [Compound 842]: the IC50 stood at 0.003 µM.

Take `Cc1ccc2[nH]ncc2c1-c1nc(-c2cc(F)ncc2NC2CC(F)(F)C2)nc(C(N)=O)c1N` [Compound 844]: the IC50 worked out at 0.038 µM.

As for `Cc1ccc2[nH]ncc2c1-c1nc(-c2cccnc2Nc2ncccc2F)cc(C(N)=O)c1N` [Compound 846], the concentration for half-maximal inhibition (IC50) was found to be 0.012 µM.

`Cc1c(F)cc2[nH]ncc2c1-c1nc(-c2cc(F)cnc2N[C@H]2CCOC2)nc(C(N)=O)c1N` [Compound 847]: the concentration for half-maximal inhibition (IC50) came to 0.022 µM.

Take `Cc1c(F)cc2[nH]ncc2c1-c1nc(-c2cccnc2NC2CC2)nc(C(N)=O)c1N` [Compound 848]: the IC50 is 0.078 µM.

For `Cc1c(F)cc2[nH]ncc2c1-c1nc(-c2cccnc2NCC(F)(F)F)nc(C(N)=O)c1N` [Compound 849], the IC50 was determined as 0.174 µM.

As to `Cc1ccc(F)c(Nc2nc(F)ccc2-c2nc(C(N)=O)c(N)c(-c3c(C)c(F)cc4[nH]ncc34)n2)n1` [Compound 850], the IC50 worked out at 0.005 µM.

Consider `Cc1ccc2[nH]ncc2c1-c1nc(-c2cc(F)cnc2N[C@@H]2CC[C@@H](O)C2)nc(C(N)=O)c1N` [Compound 851], for which the IC50 worked out at 0.044 µM.

Turning to `Cc1ccc2[nH]ncc2c1-c1nc(-c2cc(F)cnc2NCCN2CCCC2)nc(C(N)=O)c1N` [Compound 853], the IC50 came to 0.538 µM.

Turning to `Cc1c(F)cc2[nH]ncc2c1-c1nc(-c2ccc(F)nc2Nc2nccnc2C(F)F)nc(C(N)=O)c1N` [Compound 854], the IC50 worked out at 0.088 µM.

Take `Cc1c(F)cc2[nH]ncc2c1-c1nc(-c2ccc(C(F)F)nc2Nc2ncccc2F)nc(C(N)=O)c1N` [Compound 855]: the concentration for half-maximal inhibition (IC50) is 0.013 µM.

Turning to `Cc1ccc2[nH]ncc2c1-c1nc(-c2cnsc2NC2CCOCC2)nc(C(N)=O)c1N` [Compound 856], the IC50 worked out at 0.035 µM.

As to `Cc1ccc2[nH]ncc2c1-c1nc(-c2ccc(F)cc2NC2CCOCC2)nc(C(N)=O)c1N` [Compound 857], the half-maximal inhibitory concentration (IC50) was found to be 0.075 µM.

In the case of `Cc1c(F)cc2[nH]ncc2c1-c1nc(-c2ccc(F)nc2Nc2nc(C(F)F)ccc2F)nc(C(N)=O)c1N` [Compound 858], the IC50 turned out to be 0.007 µM.

On to `Cc1c(F)cc2[nH]ncc2c1-c1nc(-c2cc(F)cnc2NCC(C)(C)C#N)nc(C(N)=O)c1N` [Compound 859], for which the IC50 came out at 0.041 µM.

As to `Cc1ccc2[nH]ncc2c1-c1nc(-c2ccc(F)cc2N[C@H]2C[C@@H](O)C2)nc(C(N)=O)c1N` [Compound 860], the IC50 turned out to be 0.232 µM.

Consider `Cc1ccc2[nH]ncc2c1-c1nc(-c2ccc(F)cc2N[C@H]2C[C@](C)(O)C2)nc(C(N)=O)c1N` [Compound 861], for which the IC50 was determined as 0.095 µM.

Regarding `Cc1ccc2[nH]ncc2c1-c1nc(-c2ccc(F)cc2N[C@H]2C[C@@](C)(O)C2)nc(C(N)=O)c1N` [Compound 862], the IC50 was determined as 0.121 µM.

Turning to `Cc1ccc2[nH]ncc2c1-c1nc(-c2cc(F)cnc2NC2CCN(CC(F)(F)F)CC2)nc(C(N)=O)c1N` [Compound 863], the IC50 came to 2.08 µM.

In the case of `Cc1cc(F)c2[nH]ncc2c1-c1nc(-c2ccc(F)nc2Nc2ncccc2F)nc(C(N)=O)c1N` [Compound 864], the IC50 was found to be 0.009 µM.

`Cc1c(F)cc2[nH]ncc2c1-c1nc(-c2ccc(F)cc2Nc2ncccc2C#N)nc(C(N)=O)c1N` [Compound 865]: the IC50 is 0.01 µM.

As for `Cc1ccc2[nH]ncc2c1-c1nc(-c2cccnc2NC(C)C)cc(C(N)=O)c1N` [Compound 866, 5-amino-2′-(isopropylamino)-6-(5-methyl-1H-indazol-4-yl)-[2,3′-bipyridine]-4-carboxamide], the IC50 came out at 0.062 µM.

For `Cc1cc(F)c2[nH]ncc2c1-c1nc(-c2ccc(F)nc2Nc2nc(C(F)F)ccc2F)nc(C(N)=O)c1N` [Compound 867], the IC50 stood at 0.014 µM.

Regarding `Cc1cc(F)c2[nH]ncc2c1-c1nc(-c2ccc(F)nc2Nc2nccnc2C(F)F)nc(C(N)=O)c1N` [Compound 868], the 50% inhibitory concentration (IC50) stood at 0.139 µM.

As for `Cc1cc(F)c2[nH]ncc2c1-c1nc(-c2cc(F)cnc2N[C@H]2CCOC2)nc(C(N)=O)c1N` [Compound 869], the IC50 was 0.055 µM.

For `Cc1cc(F)c2[nH]ncc2c1-c1nc(-c2cccnc2NC2CC2)nc(C(N)=O)c1N` [Compound 871], the IC50 was 0.039 µM.

For `Cc1cc(F)c2[nH]ncc2c1-c1nc(-c2cccnc2NCC(F)(F)F)nc(C(N)=O)c1N` [Compound 872], the IC50 is 0.147 µM.

For the compound `Cc1cc(F)c2[nH]ncc2c1-c1nc(-c2cc(F)cnc2NCC(C)(C)C#N)nc(C(N)=O)c1N` [Compound 874], the IC50 is 0.121 µM.

The assay is the same for the next values; noted with them: 2 hours with compound, read-out: FUOV-1 CDK1 pThr14 IC50.
For `Cc1ccc2[nH]ncc2c1-c1nc(-c2cc(F)cnc2N[C@@H]2C[C@H]3CC[C@@H]2O3)nc(C(N)=O)c1N` [Compound 836], the IC50 amounted to 0.015 µM.

On to `Cc1ccc2[nH]ncc2c1-c1nc(-c2cc(F)cnc2N[C@@H]2C[C@@H]3CC[C@H]2O3)nc(C(N)=O)c1N` [Compound 837], for which the IC50 came out at 0.022 µM.
